Data on 1 molecule can be found in ChEMBL document CHEMBL1128868, “A carotane sesquiterpene as a potent modulator of the Maxi-K channel from Arthrinium phaesospermum” (Bioorg Med Chem Lett, 1995).

Test [1] concerns the target Potassium voltage-gated channel subfamily A member 3 (Rattus norvegicus) (UniProt P15384). Nature of the test: Inhibition of [125I]ChTX binding to voltage-gated potassium channel in rat brain synaptic plasma membranes; No effect. As to conditions: Membrane. In kind it is cell membranes.
For a further test, the species on record is Bos taurus. Nature of the test: Inhibition of [125I]ChTX binding to Maxi-K channels in bovine aortic sarcolemmal membranes. The test is classed as cell membranes. The following applies: Aorta.

Molecules are shown by their SMILES. Activity calls are given as the source filed them. No cut-off for these calls is given here.

Sequence of Potassium voltage-gated channel subfamily A member 3 (Rattus norvegicus) (P15384 whole entry): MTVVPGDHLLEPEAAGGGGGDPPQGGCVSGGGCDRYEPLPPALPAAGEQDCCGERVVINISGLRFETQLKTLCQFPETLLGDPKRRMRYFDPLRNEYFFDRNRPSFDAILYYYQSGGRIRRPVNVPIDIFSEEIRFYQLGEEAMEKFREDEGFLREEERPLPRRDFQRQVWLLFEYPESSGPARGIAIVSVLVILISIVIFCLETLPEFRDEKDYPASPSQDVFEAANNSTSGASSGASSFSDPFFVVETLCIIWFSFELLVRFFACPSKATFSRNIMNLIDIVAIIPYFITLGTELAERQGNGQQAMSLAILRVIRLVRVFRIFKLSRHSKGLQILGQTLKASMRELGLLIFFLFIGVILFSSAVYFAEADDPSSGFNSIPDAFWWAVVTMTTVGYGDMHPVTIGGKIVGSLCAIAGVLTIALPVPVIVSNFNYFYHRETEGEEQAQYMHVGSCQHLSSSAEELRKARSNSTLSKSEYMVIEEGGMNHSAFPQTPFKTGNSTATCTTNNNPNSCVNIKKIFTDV

For the molecule `CC1=CC[C@@]2(C)C[C@H](O)[C@@](O)(C(C)C)[C@@H]2CC1`, the inhibition entry in test [1] was “inactive”. This molecule came in with an inhibition in the test listed under Bos taurus of 200 nM.
